The record followed here is US6699846B2, “Mono- and disaccharides for the treatment of nitric oxide related disorders” (Corixa Corporation, priority 2000, dated 2004).

A short description of one series: USP rabbit pyrogen test. The following applies: for pyrogenicity: 2.5 μg dose, class symbols. It counts as in vivo. From the text: (§1) In clinical trials with monophosphoryl lipid A, fever was generally the first observed side effect. In clinical studies of various formulations of monophosphoryl lipid A administered intravenously, moderate fever, flu-like symptoms and alterations in blood pressure seem to be side effects that establish maximally tolerated doses. Minimum pyrogenic monophosphoryl lipid A doses, adjusted for body weight, as determined in the USP rabbit pyrogen test agree well with results observed in humans. […] In contrast, monophosphoryl lipid A becomes pyrogenic at intravenous doses of approximately 15 μg/kg (temperature increase of about 0.5° C.).

Series [1] has as its system human myelomonocytic cell line THP-1. The series can be described thus: proinflammatory cytokine elaboration from THP-1 cells. It counts as cell-based. Conditions: for cytokine induction / cytokine stimulation: TNF-α, IL-1β, class symbols; for cytokine stimulation: second table. The method, then: The human myelomonocytic cell line THP-1 (ATCC) was used to evaluate the ability of glycolipids to induce proinflammatory cytokines. Glycolipids were added to cell suspensions of THP-1 as aqueous solutions containing 10% ethanol in water for injection. Prior to the 4 hr inductions, THP-1 cells are pre-incubated overnight with 10^−7 M vitamin D3, washed three times and replated in the presence of MPL®, LPS or the synthetic compounds. After 4 hr coincubating of cells with glycolipids, media containing drug is removed, cells resuspended in fresh media and allowed to rest for 20 hr.

For series [2], the system named is iNOS induction in J774 murine macrophages. The series can be described thus: iNOS induction (nitrite release, Greiss reagent) in IFN-γ primed J774 cells. Type of series: cell-based. Conditions: for iNOS: second table, class symbols. The method, then:
The murine macrophage cell line J774 can be primed by IFN-γ in vitro and is very responsive to subsequent LPS stimulation of iNOS upregulation as measured by a standard Greiss reagent ELISA assay procedure. The assay utilizes J774 cells seeded at 1×10^6/mL with 30 mL/flask and with IFN-γ added at 100 units/mL for 16-24 hrs. Cells are then harvested and washed and resuspended at 2×10^5/well in a 96-well plate and allowed to adhere. Glycolipid compounds are serially diluted into the wells for a test group and the resulting cultures are incubated for another 36-40 hrs before culture supernatants are collected from Greiss reagent analysis of nitrite release. Nitrite content closely parallels iNOS function.
Potency was determined as the concentration (ng/mL) of glycolipid in culture capable of inducing one-half maximal induction of nitrite (ED50). The lower the ED50 number, the greater the potency for iNOS induction.

Series [3] concerns pig infarct (LAD occlusion). The series can be described thus: pig infarct study (LAD occlusion), acute cardioprotection. Type of series: in vivo. The method, then: A total of 35 pigs were enrolled in the study: 8 in group 1; 10 in group 2; 7 in group 3, 7 in group 4; and 3 in group 5. When the data were analyzed, infarct size results from the two L-NAME control groups (1 and 3) were combined.

A further series is described as follows: body temperature in dogs. Type of series: in vivo, dog.
Excerpt: as §1

Series [4] concerns cardiac ischemia. The following applies: rabbits, treated about 24 h before cardiac ischemia.
A short description of another series: body temperature in rats. It counts as in vivo, rat.
Series [5] deals with cardiac ischemia. Conditions: dogs. The text has this:
Free-radicals produced during reperfusion promote cell death. Free-radical damage to cells results in calcium overload and a decrease in activity of a variety of enzyme systems including, presumably, nitric oxide synthase causing a decrease in nitric oxide production leading to increases in neutrophil adhesion.

For a further series, the system named is ischemic tissues. The following applies: infusion immediately following bolus dosing.
[6] abbreviates: THP-1 cells, not elicited up to this concentration.

Read-outs that look alike come from different tables or passages of the source. Where only a bound is given, the exact number is not on record here.

In the case of `CCCCCCCCCCCC(CC(=O)NC1C(O)OC(COC2OC(CO)C(OP(=O)(O)O)C(OC(=O)CC(CCCCCCCCCCC)OC(C)=O)C2NC(=O)CC(CCCCCCCCCCC)OC(C)=O)C(O)C1O)OC(C)=O` (centres unmarked) [Compound 5.18], in the series “USP rabbit pyrogen test”, the pyrogenicity result is recorded as “+ (+, from 1-2° C.)”. The cytokine induction entry in series [1] is “− (−, not observable at 10 μg/mL)”.

In the case of `CCCCCCCCCCCCCCCC(=O)OC(CCCCCCCCCCC)CC(=O)NC1C(O)OC(COC2OC(CO)C(OP(=O)(O)O)C(OC(=O)CC(CCCCCCCCCCC)OC(=O)CCCCCCCCCCCCC)C2NC(=O)CC(CCCCCCCCCCC)OC(=O)CCCCCCCCCCCCC)C(O)C1O` (centres unmarked) [Compound 5.20], in “USP rabbit pyrogen test”, the pyrogenicity result is on record as “− (−<1° C.)”. Also, the cytokine induction entry in series [1] is “++ (++, observable @ 1 μg/mL)”.

With `CCCCCCCCCCC[C@H](CC(=O)N[C@H]1[C@H](OC[C@H](NC(=O)C[C@@H](CCCCCCCCCCC)OC(=O)CCCCC)C(N)=O)O[C@H](CO)[C@@H](OP(=O)(O)O)[C@@H]1OC(=O)C[C@@H](CCCCCCCCCCC)OC(=O)CCCCC)OC(=O)CCCCC` [Compound 5.21], the pyrogenicity entry in “USP rabbit pyrogen test” is recorded as “− (−<1° C.)”. Besides, in [1], the cytokine induction result is recorded as “− (−, not observable at 10 μg/mL)”.

With `CCCCCCCCCCC[C@H](CC(=O)NCCO[C@@H]1O[C@H](CO)[C@@H](OP(=O)(O)O)[C@H](OC(=O)C[C@@H](CCCCCCCCCCC)OC(=O)CCCCC)[C@H]1NC(=O)C[C@@H](CCCCCCCCCCC)OC(=O)CCCCC)OC(=O)CCCCC` [Compound 5.23], the pyrogenicity entry in “USP rabbit pyrogen test” is given as “− (−<1° C.)”. In series [1], the cytokine induction result is given as “− (−, not observable at 10 μg/mL)”.

Consider `CCCCCCCCCCCCCC(=O)O[C@H](CCCCCCCCCCC)CC(=O)NCCCO[C@@H]1O[C@H](CO)[C@@H](OP(=O)(O)O)[C@H](OC(=O)C[C@@H](CCCCCCCCCCC)OC(=O)CCCCCCCCCCCCC)[C@H]1NC(=O)C[C@@H](CCCCCCCCCCC)OC(=O)CCCCCCCCCCCCC` [Compound 5.25], for which, in “USP rabbit pyrogen test”, the pyrogenicity entry was “− (−<1° C.)”. Also, the cytokine induction result in series [1] was “++ (++, observable @ 1 μg/mL)”.

As for `CCCCCCCCCCCC(CC(=O)N[C@H]1[C@H](OC[C@H](NC(=O)CC(CCCCCCCCCCC)OC(=O)CCCCC)C(=O)O)O[C@H](CO)[C@@H](OP(=O)(O)O)[C@@H]1OC(=O)CC(CCCCCCCCCCC)OC(=O)CCCCC)OC(=O)CCCCC` (some centres unmarked) [Compound 5.26], the iNOS result in series [2] is given as “− (−>200)”. Also, the pyrogenicity entry in “USP rabbit pyrogen test” (second table) is “++ (++>2° C.)”. Also, the cytokine stimulation entry in series [1] was “− (−, not observable at 10 μg/mL)”.

Turning to `CCCCCCCCCCCCCC(=O)O[C@H](CCCCCCCCCCC)CC(=O)NCCO[C@@H]1O[C@H](CO)[C@@H](OP(=O)(O)O)[C@H](OC(=O)C[C@@H](CCCCCCCCCCC)OC(=O)CCCCCCCCCCCCC)[C@H]1NC(=O)C[C@@H](CCCCCCCCCCC)OC(=O)CCCCCCCCCCCCC` [Compound 5.29], the pyrogenicity result in “USP rabbit pyrogen test” is recorded as “− (−<1° C.)”. The cytokine induction result in series [1] is “++ (++, observable @ 1 μg/mL)”.

As to `CCCCCCCCCCCC(CC(=O)NC1C(O)OC(COC2OC(CO)C(OP(=O)(O)O)C(OC(=O)CC(CCCCCCCCCCC)OC(=O)CCCCC)C2NC(=O)CC(CCCCCCCCCCC)OC(=O)CCCCC)C(O)C1O)OC(=O)CCCCC` (centres unmarked) [Compound 5.31], in the series “USP rabbit pyrogen test”, the pyrogenicity entry is on record as “− (−<1° C.)”. Moreover, the cytokine induction result in series [1] is “− (−, not observable at 10 μg/mL)”.

Regarding `CCCCCCCCCCCC(CC(=O)NC1C(O)OC(COC2OC(CO)C(OP(=O)(O)O)C(OC(=O)CC(CCCCCCCCCCC)OC(=O)CCC)C2NC(=O)CC(CCCCCCCCCCC)OC(=O)CCC)C(O)C1O)OC(=O)CCC` (centres unmarked) [Compound 5.32], the pyrogenicity result in “USP rabbit pyrogen test” was “++ (++>2° C.)”. For the same molecule, in series [1], the cytokine induction entry is given as “− (−, not observable at 10 μg/mL)”.

As for `CCCCCCCCCCCC(CC(=O)N[C@H]1[C@H](OC[C@H](NC(=O)CC(CCCCCCCCCCC)OC(=O)CCCCCC)C(=O)O)O[C@H](CO)[C@@H](OP(=O)(O)O)[C@@H]1OC(=O)CC(CCCCCCCCCCC)OC(=O)CCCCCC)OC(=O)CCCCCC` (some centres unmarked) [Compound 5.54], the iNOS entry in series [2] was “− (−>200)”. Besides, the pyrogenicity result in the series “USP rabbit pyrogen test” (second table) is “++ (++>2° C.)”. Moreover, the cytokine stimulation result in [1] is given as “− (−, not observable at 10 μg/mL)”.

`CCCCCCCCCCCC(CC(=O)N[C@H]1[C@H](OC[C@H](NC(=O)CC(CCCCCCCCCCC)OC(=O)CCCCCCCCC)C(=O)O)O[C@H](CO)[C@@H](OP(=O)(O)O)[C@@H]1OC(=O)CC(CCCCCCCCCCC)OC(=O)CCCCC)OC(=O)CCCCCCCCC` (some centres unmarked) [Compound 5.66]: in series [2], the iNOS result is “++ (++<80)”. In the series “USP rabbit pyrogen test” (second table), the pyrogenicity result was “++ (++>2° C.)”. Besides, in [1], the cytokine stimulation result is recorded as “− (−, not observable at 10 μg/mL)”.

In the case of `CCCCCCCCCCCC(CC(=O)N[C@H]1[C@H](OC[C@H](NC(=O)CC(CCCCCCCCCCC)OC(=O)CCCCCCCCC)C(=O)O)O[C@H](CO)[C@@H](OP(=O)(O)O)[C@@H]1OC(=O)CC(CCCCCCCCCCC)OC(=O)CCCCC)OC(=O)CCCCC` (some centres unmarked) [Compound 5.67], in series [2], the iNOS entry is “− (−>200)”. Moreover, in the series “USP rabbit pyrogen test” (second table), the pyrogenicity entry is given as “++ (++>2° C.)”. In [1], the cytokine stimulation entry is listed as “− (−, not observable at 10 μg/mL)”.

In the case of `CCCCCCCCCCCC(CC(=O)N[C@H]1[C@H](OC[C@H](NC(=O)CC(CCCCCCCCCCC)OC(=O)CCCCC)C(=O)O)O[C@H](CO)[C@@H](OP(=O)(O)O)[C@@H]1OC(=O)CC(CCCCCCCCCCC)OC(=O)CCCCC)OC(=O)CCCCCCCCC` (some centres unmarked) [Compound 5.68], the iNOS result in series [2] is given as “− (−>200)”. Besides, the pyrogenicity entry in the series “USP rabbit pyrogen test” (second table) is given as “++ (++>2° C.)”. The cytokine stimulation entry in [1] is “− (−, not observable at 10 μg/mL)”.

Regarding `COC(=O)[C@@H](N)CCCNC(=N)N[N+](=O)[O-]` [L-NAME, Nω-nitro-L-arginine methyl ester, reference compound], the “mean infarct size, L-NAME controls” value in [3] (pigs, combined group of L-NAME alone and L-NAME+vehicle, 0.5 mg/kg) is 36.9±3.7%.

As to `CCCCCCCCCCCCCCCCCC(=O)OC(CCCCCCCCCCC)CC(=O)NC1C(OCC2OC(O)C(NC(=O)CC(CCCCCCCCCCC)OC(=O)CCCCCCCCCCCCCCC)C(O)C2O)OC(CO)C(OP(=O)(O)O)C1OC(=O)CC(CCCCCCCCCCC)OC(=O)CCCCCCCCCCCCC` (centres unmarked) [RC-552], the “intravenous dose without detectable increase in temperature” value in “body temperature in dogs” and in “body temperature in rats” was more than 3 mg/kg in each case. For the same molecule, the delayed protection entry is “reduced infarct size and stunning” with cardiac ischemia [4]; “reduced infarct size and stunning” in the series on cardiac ischemia [5] (treated about 24 h before cardiac ischemia). Besides, the “maximal iNOS activity / nitrite elaboration” value in series [2] (J774, IFN-γ primed) is “very low maximal iNOS activity”. This molecule also came in with a mean infarct size in [3] (pigs, 29 μg/kg i.v. bolus 10 minutes prior to ischemia (LAD occlusion), vehicle 28.9±5.0%) of 14.2±3.0%. Moreover, the “mean infarct size, L-NAME before RC-552” value in series [3] (pigs, 0.5 mg/kg L-NAME 30 minutes prior to 29 μg/kg RC-552) was 40.2±4.4%. Also, the “reduction of infarct size vs vehicle pretreated pigs” value in series [3] (treated 10 minutes prior to ischemia) was found to be 50%. Besides, the “delayed cardioprotective effect after NOS inhibitor (aminoguanidine or L-NAME)” value in the series with cardiac ischemia [5] is on record as “blocked”. Also, the pyrogenicity entry in “USP rabbit pyrogen test” is on record as “− (−<1° C.)”. Besides, the average temperature increase entry in the series “USP rabbit pyrogen test” (rabbits, i.v. doses up to at least 1,000 μg/kg, 10% ethanol in USP WFI) is “less than 0.35 °C”. In addition, the “duration of extended acute protective effect” value in the series with ischemic tissues is recorded as “at least 3 h”. Further, the “concentration inducing IL-1B secretion” value in [1] (THP-1 cells, 4 hr induction) is reported as > 10,000 ng/mL. Besides, the “concentration inducing IL-8 elaboration” value in series [1] (THP-1 cells, 4 hr induction) is > 10,000 ng/mL. In series [1] (setting [6]), the “concentration eliciting IL-1” value is > 10,000 μg/mL. Besides, the “concentration eliciting IL-8” value in series [1] (setting [6]) is on record as > 10,000 μg/mL. Further, the “concentration inducing TNF secretion” value in series [1] (THP-1 cells, not induced up to this concentration) is > 10,000 μg/mL. In series [1], the cytokine induction result is “− (−, not observable at 10 μg/mL)”.
